Measured values taken from BindingDB's records for doi:10.3109/14756366.2012.750311 (Atatürk University, 2014).

Key:
Carbonic anhydrase 1 = Carbonic anhydrase 1 (Homo sapiens, UniProt P00915); assay: Hydratase and Esterase Activity Assays
Method: (§1) The effect of novel sulfonamides 28-33 on HCA isozyme activity was determined colorimetrically using CO2-hydration method of Wilbur and Anderson29 described previously [G l in et al., Biol. Pharm. Bull., 27:613-16]. Esterase activity was determined according to the method described by Verpoorte et al [Verpoorte et al., J. Biol. Chem., 242:4221-9].

Carbonic anhydrase 2 = Carbonic anhydrase 2 (Homo sapiens, UniProt P00918); assay: Hydratase and Esterase Activity Assays
Method: as §1

Sequence of Carbonic anhydrase 1 (P00915 whole entry): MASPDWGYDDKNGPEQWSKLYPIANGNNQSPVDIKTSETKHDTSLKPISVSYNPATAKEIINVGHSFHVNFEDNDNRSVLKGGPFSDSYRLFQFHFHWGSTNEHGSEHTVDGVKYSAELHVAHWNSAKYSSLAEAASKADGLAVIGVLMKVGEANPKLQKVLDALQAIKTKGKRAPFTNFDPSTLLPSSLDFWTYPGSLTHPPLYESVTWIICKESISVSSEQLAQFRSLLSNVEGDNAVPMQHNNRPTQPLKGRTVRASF

Row | SMILES | Ki (Carbonic anhydrase 1) [µM] | Ki (Carbonic anhydrase 2) [µM] | IC50 (Carbonic anhydrase 2) [µM] | IC50 (Carbonic anhydrase 1) [µM]
1 | CS(=O)(=O)NC1CCc2ccccc21 (stereo not given) [N-(Indane-1-yl)methanesulfonamide (29)] | 173 | 211 | – | –
2 | CS(=O)(=O)NC1Cc2ccccc2C1 [N-(Indane-2-yl)methanesulfonamide (33)] | 104 | 170 | – | –
3 | COc1cccc2c1CCCC2NS(C)(=O)=O (stereo not given) [N-(5-metoksi-1,2,3,4-tetrahydronaphthalene-1-yl)methanesulfonamide (30)] | 185 | 112 | – | –

More lines, now with the values ahead:

Row | Ki (Carbonic anhydrase 1) [µM] | Ki (Carbonic anhydrase 2) [µM] | IC50 (Carbonic anhydrase 2) [µM] | IC50 (Carbonic anhydrase 1) [µM] | SMILES
4 | 228 | 94 | 338 | – | CS(=O)(=O)NC1CCc2ccccc2C1 (stereo not given) [N-(1,2,3,4-tetrahydronaphthalene-2-yl)methanesulfonamide (31)]
5 | 52 | 215 | – | 487 | COc1cc2c(cc1OC)C(NS(C)(=O)=O)CC2 (stereo not given) [N-(5,6-dimethoxyindane-1-yl)methanesulfonamide (28)]
6 | 46 | 372 | – | 266 | COc1cc2c(cc1OC)CC(NS(C)(=O)=O)C2 [N-(5,6-dimethoxy-2,3-dihydro-1H-inden-2-yl)methanesulfonamide (32)]
